PubChem BioAssay AID218 (DTP/NCI, 2004)
Several values for one entry are separate records, joined by “and”; a condition that tells them apart may be missing. Equal entries are not always repeated.

System: C57BL/6 mice, Adenocarcinoma 755 sc, tumor weight T/C
Assay: NCI In Vivo Anticancer Drug Screen. Data for tumor model Adenocarcinoma 755 (subcutaneous) in C57BL/6 mice
Conditions: endpoint: mean tumor weight, higher = larger tumour
Protocol: The antitumor activity of compounds was measured in mice bearing transplantable tumors. Survival or tumor size were measured and the results are expressed as the measurement made in the treated group (T) divided by the measurement made in the vehicle treated control group (C). The tumor model used in this assay is Adenocarcinoma 755 (subcutaneous) in C57BL/6 mice

[1] = dose: 50.0 mg/kg/injection, schedule: Q01DX011 (ip), vehicle: carboxymethylcellulose (CMC)

CN(C)C1C(=O)C(C(N)=O)=C(O)C2(O)C(=O)C3=C(O)c4c(O)cccc4C(C)(O)C3C(O)C12 (centres undefined)
T/C (dose: 125.0 mg/kg/injection, schedule: Q02DX006 (ip), vehicle: water): 58 % of control | T/C (dose: 150.0 mg/kg/injection, schedule: Q02DX006 (ip), vehicle: water): 106 % of control

CSc1ncnc2nc[nH]c12
T/C (dose: 1.25 mg/kg/injection, schedule: Q01DX011 (ip), vehicle: carboxymethylcellulose (CMC)): 16 % of control | T/C (dose: 2.5 mg/kg/injection, schedule: Q01DX011 (ip), vehicle: carboxymethylcellulose (CMC)): 8 % of control | T/C (dose: 7.5 mg/kg/injection, schedule: Q01DX011 (ip), vehicle: saline): 58 % of control | T/C (dose: 10.0 mg/kg/injection, schedule: Q01DX011 (ip), vehicle: saline): 23 % of control | T/C (dose: 15.0 mg/kg/injection, schedule: Q01DX011 (ip), vehicle: saline): 2 % of control | T/C (dose: 20.0 mg/kg/injection, schedule: Q01DX011 (ip), vehicle: saline): 6 % of control and 9 % of control | T/C (dose: 30.0 mg/kg/injection, schedule: Q01DX011 (ip), vehicle: carboxymethylcellulose (CMC)): 5 % of control | T/C (dose: 30.0 mg/kg/injection, schedule: Q01DX011 (ip), vehicle: saline): 1 % of control and 2 % of control and 9 % of control | T/C (dose: 40.0 mg/kg/injection, schedule: Q01DX011 (ip), vehicle: carboxymethylcellulose (CMC)): 2 % of control | T/C (dose: 40.0 mg/kg/injection, schedule: Q01DX011 (ip), vehicle: saline): 3 % of control | T/C [1]: 3 % of control

Clc1cc(N2CC2)nc(N2CC2)n1
T/C (dose: 5.0 mg/kg/injection, schedule: Q02DX006 (ip), vehicle: other): 79 % of control | T/C (dose: 7.5 mg/kg/injection, schedule: Q02DX006 (ip), vehicle: other): 72 % of control | T/C (dose: 10.0 mg/kg/injection, schedule: Q02DX006 (ip), vehicle: other): 18 % of control

CCCCOC(=O)C1(N)CCCC1
T/C (dose: 28.0 mg/kg/injection, schedule: Q01DX011 (ip), vehicle: saline): 52 % of control | T/C (dose: 56.0 mg/kg/injection, schedule: Q01DX011 (ip), vehicle: saline): 24 % of control

COC1=C(N)C(=O)c2nc(-c3nc(C(=O)O)c(C)c(-c4ccc(OC)c(OC)c4O)c3N)ccc2C1=O
T/C (dose: 0.06 mg/kg/injection, schedule: Q01DX011 (ip), vehicle: saline): 84 % of control | T/C (dose: 0.09 mg/kg/injection, schedule: Q01DX011 (ip), vehicle: saline): 77 % of control | T/C (dose: 0.13 mg/kg/injection, schedule: Q01DX011 (ip), vehicle: saline): 64 % of control | T/C (dose: 0.2 mg/kg/injection, schedule: Q01DX011 (ip), vehicle: saline): 38 % of control

COC(=O)C(N)CCl (centres undefined)
T/C (dose: 150.0 mg/kg/injection, schedule: Q02DX006 (ip), vehicle: saline): 74 % of control | T/C (dose: 200.0 mg/kg/injection, schedule: Q02DX006 (ip), vehicle: saline): 83 % of control

Cc1c2ccccc2c(C)c2c1ccc1ccccc12
T/C (dose: 9.0 mg/kg/injection, schedule: Q01DX011 (ip), vehicle: saline): 44 % of control | T/C (dose: 19.0 mg/kg/injection, schedule: Q01DX011 (ip), vehicle: saline): 19 % of control

Nc1nc(=S)c2ncn(C3OC(COC(=O)c4ccccc4)C(OC(=O)c4ccccc4)C3OC(=O)c3ccccc3)c2[nH]1 (centres undefined)
T/C (dose: 3.1 mg/kg/injection, schedule: Q01DX011 (ip), vehicle: methylcellulose (MC)): 90 % of control | T/C (dose: 6.25 mg/kg/injection, schedule: Q01DX011 (ip), vehicle: methylcellulose (MC)): 62 % of control | T/C (dose: 12.5 mg/kg/injection, schedule: Q01DX011 (ip), vehicle: methylcellulose (MC)): 77 % of control | T/C (dose: 25.0 mg/kg/injection, schedule: Q01DX011 (ip), vehicle: methylcellulose (MC)): 16 % of control

CCCCNc1nc(N)nc2nc[nH]c12
T/C (dose: 5.0 mg/kg/injection, schedule: Q01DX011 (ip), vehicle: carboxymethylcellulose (CMC)): 106 % of control | T/C (dose: 10.0 mg/kg/injection, schedule: Q01DX011 (ip), vehicle: carboxymethylcellulose (CMC)): 104 % of control | T/C (dose: 25.0 mg/kg/injection, schedule: Q01DX011 (ip), vehicle: carboxymethylcellulose (CMC)): 123 % of control | T/C [1]: 78 % of control | T/C (dose: 100.0 mg/kg/injection, schedule: Q01DX011 (ip), vehicle: carboxymethylcellulose (CMC)): 72 % of control

O=c1[nH]cnc2n[nH]nc12
T/C (dose: 150.0 mg/kg/injection, schedule: Q01DX011 (ip), vehicle: saline): 55 % of control | T/C (dose: 200.0 mg/kg/injection, schedule: Q01DX011 (ip), vehicle: saline): 20 % of control

N=C(N)CCNC(=O)C1CCC(N)=N1 (centres undefined)
T/C (dose: 4.0 mg/kg/injection, schedule: Q02DX006 (ip), vehicle: saline): 59 % of control | T/C (dose: 6.0 mg/kg/injection, schedule: Q02DX006 (ip), vehicle: saline): 29 % of control and 53 % of control | T/C (dose: 10.0 mg/kg/injection, schedule: Q02DX006 (ip), vehicle: saline): 44 % of control

Clc1ncnc2nc[nH]c12
T/C (dose: 37.5 mg/kg/injection, schedule: Q01DX011 (ip), vehicle: saline): 1 % of control

Cn1cc(NC(=O)c2cc(NC(=O)CN=C(N)N)cn2C)cc1C(=O)NCCC(=N)N
T/C (dose: 20.0 mg/kg/injection, schedule: Q02DX006 (ip), vehicle: water): 95 % of control | T/C (dose: 25.0 mg/kg/injection, schedule: Q02DX006 (ip), vehicle: water): 69 % of control | T/C (dose: 30.0 mg/kg/injection, schedule: Q02DX006 (ip), vehicle: water): 31 % of control
